From ChEMBL document CHEMBL1201862, “PubChem BioAssay data set” (2004)
Activity calls are given as the source filed them.

What was measured:
[1] = target: T1, Histone-lysine N-methyltransferase NSD2 (Homo sapiens, UniProt O96028); type: biochemical
T1 sequence (O96028 whole entry): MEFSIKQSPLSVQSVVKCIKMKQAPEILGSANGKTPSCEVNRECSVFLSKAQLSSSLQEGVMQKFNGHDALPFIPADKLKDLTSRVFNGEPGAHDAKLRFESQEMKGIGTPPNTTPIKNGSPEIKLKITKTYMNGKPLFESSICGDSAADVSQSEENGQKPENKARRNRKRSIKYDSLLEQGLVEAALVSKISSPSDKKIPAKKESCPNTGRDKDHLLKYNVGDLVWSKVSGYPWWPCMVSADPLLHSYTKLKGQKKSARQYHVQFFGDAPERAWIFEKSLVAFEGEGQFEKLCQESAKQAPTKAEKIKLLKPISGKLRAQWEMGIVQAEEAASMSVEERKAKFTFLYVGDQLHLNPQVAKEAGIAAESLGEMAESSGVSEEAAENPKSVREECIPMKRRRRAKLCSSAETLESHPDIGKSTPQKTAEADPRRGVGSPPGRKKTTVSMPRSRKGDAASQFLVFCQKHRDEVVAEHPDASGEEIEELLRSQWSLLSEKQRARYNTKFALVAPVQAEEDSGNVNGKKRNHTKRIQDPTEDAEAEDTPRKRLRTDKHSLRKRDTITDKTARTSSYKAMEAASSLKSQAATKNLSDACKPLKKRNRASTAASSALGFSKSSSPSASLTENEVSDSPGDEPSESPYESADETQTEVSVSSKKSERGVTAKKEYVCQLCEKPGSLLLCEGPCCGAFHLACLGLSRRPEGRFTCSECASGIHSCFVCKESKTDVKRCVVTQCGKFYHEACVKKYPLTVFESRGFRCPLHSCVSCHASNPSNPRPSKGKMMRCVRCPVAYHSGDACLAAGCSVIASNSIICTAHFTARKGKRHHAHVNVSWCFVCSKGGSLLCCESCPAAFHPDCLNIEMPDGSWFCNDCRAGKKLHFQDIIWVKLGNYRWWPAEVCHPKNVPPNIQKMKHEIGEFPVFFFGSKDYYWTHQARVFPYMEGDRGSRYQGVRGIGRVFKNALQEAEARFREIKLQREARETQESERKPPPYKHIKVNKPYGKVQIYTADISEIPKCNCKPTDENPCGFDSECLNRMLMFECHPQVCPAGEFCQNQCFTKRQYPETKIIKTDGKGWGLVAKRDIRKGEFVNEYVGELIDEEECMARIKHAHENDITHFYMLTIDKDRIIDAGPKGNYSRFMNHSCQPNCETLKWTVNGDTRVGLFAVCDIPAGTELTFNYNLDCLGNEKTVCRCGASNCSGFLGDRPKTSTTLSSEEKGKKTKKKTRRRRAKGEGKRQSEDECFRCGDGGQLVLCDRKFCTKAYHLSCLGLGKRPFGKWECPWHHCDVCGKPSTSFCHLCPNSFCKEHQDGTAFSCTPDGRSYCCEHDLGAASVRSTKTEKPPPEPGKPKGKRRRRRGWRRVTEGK

[2] = target: T2, Sentrin-specific protease 8 (Homo sapiens, UniProt Q96LD8); type: functional;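 also: luminescence read-out of SENP8 inhibition, dose-response confirmation following an ultra-high-throughput screen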
T2 sequence (Q96LD8 whole entry): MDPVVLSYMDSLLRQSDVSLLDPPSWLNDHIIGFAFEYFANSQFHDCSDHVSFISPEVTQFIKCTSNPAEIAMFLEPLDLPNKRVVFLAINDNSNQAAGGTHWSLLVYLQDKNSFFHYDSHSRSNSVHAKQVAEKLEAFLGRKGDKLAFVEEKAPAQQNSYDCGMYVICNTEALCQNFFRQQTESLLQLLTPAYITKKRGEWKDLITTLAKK

SUMO-activating enzyme = SUMO-activating enzyme (Homo sapiens, UniProt Q9UBT2); test: blockers of UBC9-mediated SUMO conjugation – biochemical, AlphaScreen, SUMOylation inhibitor project, confirmation (AID 2018); type: functional
Bcl-2-related protein A1 = target: T3, Bcl-2-related protein A1 (Mus musculus, UniProt Q07440); type: functional;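 also: confirmatory dose–response counterscreen on Bfl-1, used to check hits from a UBC13 polyubiquitin inhibitor campaign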
T3 sequence (Q07440 whole entry): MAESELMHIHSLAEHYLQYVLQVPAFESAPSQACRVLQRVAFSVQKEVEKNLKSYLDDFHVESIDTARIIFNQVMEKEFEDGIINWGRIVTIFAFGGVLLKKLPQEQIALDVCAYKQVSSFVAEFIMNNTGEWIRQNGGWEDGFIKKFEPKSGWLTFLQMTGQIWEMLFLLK

[3] = reduction of Shn3 3'UTR-driven luciferase in osteoblasts – cell-based, Clone20 osteoblasts, firefly luciferase, cherry-picked, dose response (AID 624132); type: functional;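 also: firefly luciferase luminescence from reporter carrying the Shn3 3'UTR in osteoblasts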
Vero = test: viability of Vero cells under compound – cytotoxicity control for flavivirus capping enzyme inhibitors (AID 588742); type: functional; conditions: Chlorocebus sabaeus
[4] = target: T4, Microphthalmia-associated transcription factor (Homo sapiens, UniProt O75030); test: reducers of TRPM1 reporter luminescence, concentration series – cell-based, SK-MEL-5, cherry-picked, set 3, MITF inhibitor project, dose response (AID 493073); type: functional;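 also: SK-MEL-5 melanoma cells with luciferase driven by the MITF target TRPM1 promoter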
T4 sequence (O75030 whole entry): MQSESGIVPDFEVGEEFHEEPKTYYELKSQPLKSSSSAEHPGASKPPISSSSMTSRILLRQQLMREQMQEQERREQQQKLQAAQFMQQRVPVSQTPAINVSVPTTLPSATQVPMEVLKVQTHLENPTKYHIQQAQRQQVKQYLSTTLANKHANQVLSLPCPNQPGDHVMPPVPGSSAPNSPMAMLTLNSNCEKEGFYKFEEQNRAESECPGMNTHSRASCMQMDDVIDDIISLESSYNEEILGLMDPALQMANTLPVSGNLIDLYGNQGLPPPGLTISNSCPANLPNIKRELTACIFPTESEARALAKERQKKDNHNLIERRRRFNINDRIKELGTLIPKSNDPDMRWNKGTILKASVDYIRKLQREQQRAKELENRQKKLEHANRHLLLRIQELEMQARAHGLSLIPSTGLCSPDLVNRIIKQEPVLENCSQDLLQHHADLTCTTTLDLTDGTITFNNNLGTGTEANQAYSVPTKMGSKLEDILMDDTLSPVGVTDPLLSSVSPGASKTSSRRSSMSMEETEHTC

Caspase-7 = Caspase-7 (Homo sapiens, UniProt P55210); test: caspase-7 enzyme inhibition, selectivity check – biochemical, DEVD-R110 fluorescence, cherry-pick, selectivity assay for caspase-6 inhibitor project, dose response (AID 743295); type: functional
Caspase-6 = target: T5, Caspase-6 (Homo sapiens, UniProt P55212); test: inhibition of CASP6 peptide cleavage – biochemical, VEID-R110 fluorescence, cherry-pick, dose response (AID 720632)
T5 sequence (P55212 whole entry): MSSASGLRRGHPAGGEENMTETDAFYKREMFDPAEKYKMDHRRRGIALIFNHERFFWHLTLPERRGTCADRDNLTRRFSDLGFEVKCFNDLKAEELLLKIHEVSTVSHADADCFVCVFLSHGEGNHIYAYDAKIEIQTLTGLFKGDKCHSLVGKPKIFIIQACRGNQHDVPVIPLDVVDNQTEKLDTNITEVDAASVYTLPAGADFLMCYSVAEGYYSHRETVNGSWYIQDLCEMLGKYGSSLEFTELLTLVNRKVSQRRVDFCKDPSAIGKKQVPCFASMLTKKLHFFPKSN

SUMO-activating enzyme, sequence (Q9UBE0 whole entry): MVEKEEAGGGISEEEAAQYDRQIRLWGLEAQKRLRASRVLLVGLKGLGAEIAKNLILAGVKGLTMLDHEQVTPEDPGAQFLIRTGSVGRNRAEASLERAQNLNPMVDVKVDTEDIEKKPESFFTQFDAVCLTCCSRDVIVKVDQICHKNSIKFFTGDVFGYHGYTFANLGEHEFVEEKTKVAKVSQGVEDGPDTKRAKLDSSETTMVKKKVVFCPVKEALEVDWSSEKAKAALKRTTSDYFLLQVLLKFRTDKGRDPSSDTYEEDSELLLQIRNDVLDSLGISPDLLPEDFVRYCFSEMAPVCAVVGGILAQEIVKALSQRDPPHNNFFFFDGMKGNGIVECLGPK
SUMO-activating enzyme, sequence (Q9UBT2 whole entry): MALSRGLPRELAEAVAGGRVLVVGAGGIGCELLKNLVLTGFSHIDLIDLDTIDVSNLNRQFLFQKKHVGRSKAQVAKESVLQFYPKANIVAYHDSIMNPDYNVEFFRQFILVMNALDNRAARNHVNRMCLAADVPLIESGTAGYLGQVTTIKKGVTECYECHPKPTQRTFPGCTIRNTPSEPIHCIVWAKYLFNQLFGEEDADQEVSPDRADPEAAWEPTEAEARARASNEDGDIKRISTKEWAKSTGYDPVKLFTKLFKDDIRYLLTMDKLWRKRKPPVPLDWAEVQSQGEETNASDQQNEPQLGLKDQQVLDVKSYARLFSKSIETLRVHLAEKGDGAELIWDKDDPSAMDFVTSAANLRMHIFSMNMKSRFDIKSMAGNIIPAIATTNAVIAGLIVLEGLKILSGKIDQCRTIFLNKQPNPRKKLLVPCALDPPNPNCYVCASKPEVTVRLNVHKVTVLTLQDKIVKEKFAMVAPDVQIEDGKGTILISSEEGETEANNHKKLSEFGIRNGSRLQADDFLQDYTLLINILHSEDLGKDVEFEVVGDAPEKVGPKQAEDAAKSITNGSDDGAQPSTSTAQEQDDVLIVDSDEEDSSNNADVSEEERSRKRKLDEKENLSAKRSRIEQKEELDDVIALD
Caspase-7, sequence (P55210 24-198 limits assumed): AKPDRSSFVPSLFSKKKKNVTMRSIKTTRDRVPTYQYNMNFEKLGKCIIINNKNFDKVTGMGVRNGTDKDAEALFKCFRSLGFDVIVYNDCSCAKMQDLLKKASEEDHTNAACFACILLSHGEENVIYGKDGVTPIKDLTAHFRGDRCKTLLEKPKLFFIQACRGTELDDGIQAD
Caspase-7, sequence (P55210 207-303 limits assumed): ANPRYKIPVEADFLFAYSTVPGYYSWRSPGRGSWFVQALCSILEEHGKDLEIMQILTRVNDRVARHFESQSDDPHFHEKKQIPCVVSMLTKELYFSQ

Compound: O=C1C(Cl)=C(N2CCC(C(=O)O)CC2)C(=O)c2ccccc21
- AC50 [1]: 1.46 µM (active)
- IC50 [2]: 20.2 µM (active)
- IC50 (SUMO-activating enzyme): 5.75 µM (active)

Compound: CCCCCCCCCCOC(=O)Cn1c(COc2ccc(OC)cc2)[n+](C)c2ccccc21
- IC50 (Bcl-2-related protein A1): 19.1 µM (active)
- AC50 [3]: 2.01 µM (active)

Compound: COC1=C(c2ccccc2)C(=O)c2ccccc2C1=O
- CC50 (Vero): 17.8 µM (active)
- AC50 [1]: > 20 µM (inactive)
- AC50 [4]: 9.05 µM (active)

Compound: COc1cc2c(cc1OC)-c1c(OC)c(OC)cc3c1[C@H](C2)N(C)CC3
- AC50 (Caspase-7): 1.77 µM (active)
- AC50 (Caspase-6): 0.926 µM (active)
- IC50 [2]: 5.13 µM (active)
